Consider 17 compounds from ChEMBL document CHEMBL5291721, “A preclinical secondary pharmacology resource illuminates target-adverse drug reaction associations of marketed drugs” (Nat Commun, 2023).

One may read the AC50 as the concentration at which the activity in the assay is half-maximal. Read a low AC50 as activity at low concentration.

One experiment concerns the target Vasopressin V2 receptor (Homo sapiens, UniProt P30518).
In another experiment the target is Melanocortin receptor 4 (Homo sapiens, UniProt P32245).
Melanocortin receptor 4, sequence (P32245 whole entry): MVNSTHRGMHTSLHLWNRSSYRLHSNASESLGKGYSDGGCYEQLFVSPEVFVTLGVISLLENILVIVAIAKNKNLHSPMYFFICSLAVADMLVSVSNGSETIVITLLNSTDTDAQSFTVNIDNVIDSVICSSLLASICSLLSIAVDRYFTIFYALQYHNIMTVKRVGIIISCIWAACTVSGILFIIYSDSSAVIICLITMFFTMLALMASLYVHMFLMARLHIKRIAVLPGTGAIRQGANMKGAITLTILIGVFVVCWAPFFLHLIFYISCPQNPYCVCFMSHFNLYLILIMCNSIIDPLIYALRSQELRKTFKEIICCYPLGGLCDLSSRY
The target of another experiment is T1, Progesterone receptor (Homo sapiens, UniProt P06401).
T1 sequence (P06401 whole entry): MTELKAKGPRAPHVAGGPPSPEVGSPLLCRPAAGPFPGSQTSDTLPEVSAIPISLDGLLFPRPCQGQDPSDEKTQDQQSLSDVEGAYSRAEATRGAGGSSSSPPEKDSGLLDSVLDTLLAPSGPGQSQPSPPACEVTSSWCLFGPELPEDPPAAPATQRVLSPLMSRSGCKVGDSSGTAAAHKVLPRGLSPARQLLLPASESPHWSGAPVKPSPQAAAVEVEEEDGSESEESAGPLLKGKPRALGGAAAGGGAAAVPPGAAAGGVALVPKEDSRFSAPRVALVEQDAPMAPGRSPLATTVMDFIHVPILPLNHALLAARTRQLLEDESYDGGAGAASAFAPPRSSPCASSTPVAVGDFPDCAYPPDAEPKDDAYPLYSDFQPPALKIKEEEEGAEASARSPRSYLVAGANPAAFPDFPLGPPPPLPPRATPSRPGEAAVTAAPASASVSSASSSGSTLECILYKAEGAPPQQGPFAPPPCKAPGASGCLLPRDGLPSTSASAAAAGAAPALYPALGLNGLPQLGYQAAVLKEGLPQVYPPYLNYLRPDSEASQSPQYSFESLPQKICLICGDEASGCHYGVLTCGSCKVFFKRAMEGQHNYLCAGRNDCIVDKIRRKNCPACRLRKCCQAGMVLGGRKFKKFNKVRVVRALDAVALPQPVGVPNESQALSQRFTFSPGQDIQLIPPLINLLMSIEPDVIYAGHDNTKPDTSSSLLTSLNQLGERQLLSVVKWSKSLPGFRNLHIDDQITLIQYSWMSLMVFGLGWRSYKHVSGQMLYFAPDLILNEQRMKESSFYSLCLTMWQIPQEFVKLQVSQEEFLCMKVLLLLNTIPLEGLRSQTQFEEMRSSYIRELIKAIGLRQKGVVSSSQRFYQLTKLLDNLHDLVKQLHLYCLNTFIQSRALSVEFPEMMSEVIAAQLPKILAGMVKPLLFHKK
The experiment is classed as functional.

The next experiment has as its target T2, Thromboxane A2 receptor (Homo sapiens, UniProt P21731).
T2 sequence (P21731 whole entry): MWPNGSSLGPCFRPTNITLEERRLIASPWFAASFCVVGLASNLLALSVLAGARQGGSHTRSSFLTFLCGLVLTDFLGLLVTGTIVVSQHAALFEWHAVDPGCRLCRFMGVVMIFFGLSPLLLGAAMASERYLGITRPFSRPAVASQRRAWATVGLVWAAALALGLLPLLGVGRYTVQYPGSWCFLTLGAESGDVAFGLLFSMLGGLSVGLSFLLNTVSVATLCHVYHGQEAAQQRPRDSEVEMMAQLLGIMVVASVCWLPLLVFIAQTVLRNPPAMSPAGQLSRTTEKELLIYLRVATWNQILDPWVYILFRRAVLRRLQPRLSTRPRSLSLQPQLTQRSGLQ
The experiment is classed as functional, cell-based.

Experiment [1] deals with Gamma-aminobutyric acid receptor subunit alpha-1 (Rattus norvegicus, UniProt P62813).
Gamma-aminobutyric acid receptor subunit alpha-1, sequence (P62813 whole entry): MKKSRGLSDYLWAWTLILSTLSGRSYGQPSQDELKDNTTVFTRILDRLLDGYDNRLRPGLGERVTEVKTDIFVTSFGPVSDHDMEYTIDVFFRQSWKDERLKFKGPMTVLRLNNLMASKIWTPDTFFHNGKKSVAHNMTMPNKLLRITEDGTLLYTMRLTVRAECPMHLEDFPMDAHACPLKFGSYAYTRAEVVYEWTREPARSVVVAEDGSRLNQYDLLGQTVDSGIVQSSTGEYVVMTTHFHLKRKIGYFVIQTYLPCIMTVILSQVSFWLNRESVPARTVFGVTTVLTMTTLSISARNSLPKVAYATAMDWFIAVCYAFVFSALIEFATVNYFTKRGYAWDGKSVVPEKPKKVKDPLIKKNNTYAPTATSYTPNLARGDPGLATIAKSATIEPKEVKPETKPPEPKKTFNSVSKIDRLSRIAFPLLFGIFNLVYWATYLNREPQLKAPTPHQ
The target in another experiment is Histamine H2 receptor (Homo sapiens, UniProt P25021). The experiment is classed as functional, cell-based.
Histamine H2 receptor, sequence (P25021 whole entry): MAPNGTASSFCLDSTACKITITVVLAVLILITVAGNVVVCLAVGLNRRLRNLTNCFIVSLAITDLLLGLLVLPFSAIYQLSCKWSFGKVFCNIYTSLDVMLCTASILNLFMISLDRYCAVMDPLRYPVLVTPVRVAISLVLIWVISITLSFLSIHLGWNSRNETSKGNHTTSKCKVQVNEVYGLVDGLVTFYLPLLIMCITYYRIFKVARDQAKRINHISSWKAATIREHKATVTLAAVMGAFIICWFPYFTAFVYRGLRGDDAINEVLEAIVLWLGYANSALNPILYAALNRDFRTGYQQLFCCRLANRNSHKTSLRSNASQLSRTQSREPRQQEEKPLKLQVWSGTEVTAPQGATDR
The target of experiment [2] is T3, Mu-type opioid receptor (Homo sapiens, UniProt P35372).
T3 sequence (P35372 whole entry): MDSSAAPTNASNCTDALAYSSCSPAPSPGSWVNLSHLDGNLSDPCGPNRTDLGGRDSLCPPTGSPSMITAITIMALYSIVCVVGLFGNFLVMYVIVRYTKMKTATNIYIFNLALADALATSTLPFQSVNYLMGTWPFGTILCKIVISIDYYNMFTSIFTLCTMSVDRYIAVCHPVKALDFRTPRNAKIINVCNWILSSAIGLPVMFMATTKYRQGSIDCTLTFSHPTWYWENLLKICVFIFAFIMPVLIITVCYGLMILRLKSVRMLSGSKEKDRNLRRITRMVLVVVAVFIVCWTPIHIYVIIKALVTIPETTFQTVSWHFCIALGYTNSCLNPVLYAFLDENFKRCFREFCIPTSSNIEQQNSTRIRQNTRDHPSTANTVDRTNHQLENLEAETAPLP
The target in experiment [3] is T4, Alpha-1A adrenergic receptor (Homo sapiens, UniProt P35348).
T4 sequence (P35348 whole entry): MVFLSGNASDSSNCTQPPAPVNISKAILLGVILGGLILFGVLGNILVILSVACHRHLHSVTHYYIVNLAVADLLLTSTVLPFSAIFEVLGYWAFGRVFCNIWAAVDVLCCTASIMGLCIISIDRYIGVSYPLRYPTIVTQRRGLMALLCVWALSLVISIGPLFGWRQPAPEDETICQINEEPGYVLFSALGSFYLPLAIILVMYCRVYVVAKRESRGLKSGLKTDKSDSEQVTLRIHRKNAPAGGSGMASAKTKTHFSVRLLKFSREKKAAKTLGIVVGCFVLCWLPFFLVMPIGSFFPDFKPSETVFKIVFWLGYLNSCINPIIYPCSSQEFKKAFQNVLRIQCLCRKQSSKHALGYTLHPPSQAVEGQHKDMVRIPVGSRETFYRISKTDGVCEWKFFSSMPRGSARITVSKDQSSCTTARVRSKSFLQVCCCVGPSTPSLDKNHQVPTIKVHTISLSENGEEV
The experiment is classed as functional, cell-based.

Experiment [4] deals with T4, Alpha-1A adrenergic receptor. Format: functional, cell-based. This is another data set of the same source.
Experiment [5] addresses T3, Mu-type opioid receptor. This is another data set of the same source.
The target in experiment [6] is T5, Alpha-2B adrenergic receptor (Homo sapiens, UniProt P18089).
T5 sequence (P18089 whole entry): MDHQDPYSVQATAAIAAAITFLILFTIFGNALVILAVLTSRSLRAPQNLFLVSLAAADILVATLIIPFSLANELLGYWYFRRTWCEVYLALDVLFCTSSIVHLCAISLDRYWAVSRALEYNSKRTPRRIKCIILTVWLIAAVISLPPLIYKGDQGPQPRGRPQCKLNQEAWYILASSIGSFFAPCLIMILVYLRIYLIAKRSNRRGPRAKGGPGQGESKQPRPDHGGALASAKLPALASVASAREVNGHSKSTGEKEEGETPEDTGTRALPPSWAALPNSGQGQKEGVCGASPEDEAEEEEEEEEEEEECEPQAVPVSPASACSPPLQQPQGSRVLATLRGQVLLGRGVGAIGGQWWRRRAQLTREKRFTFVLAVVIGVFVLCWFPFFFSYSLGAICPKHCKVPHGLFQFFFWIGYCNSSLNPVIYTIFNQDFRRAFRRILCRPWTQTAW

The target of experiment [7] is Muscarinic acetylcholine receptor M3 (Homo sapiens, UniProt P20309).
Muscarinic acetylcholine receptor M3, sequence (P20309 whole entry): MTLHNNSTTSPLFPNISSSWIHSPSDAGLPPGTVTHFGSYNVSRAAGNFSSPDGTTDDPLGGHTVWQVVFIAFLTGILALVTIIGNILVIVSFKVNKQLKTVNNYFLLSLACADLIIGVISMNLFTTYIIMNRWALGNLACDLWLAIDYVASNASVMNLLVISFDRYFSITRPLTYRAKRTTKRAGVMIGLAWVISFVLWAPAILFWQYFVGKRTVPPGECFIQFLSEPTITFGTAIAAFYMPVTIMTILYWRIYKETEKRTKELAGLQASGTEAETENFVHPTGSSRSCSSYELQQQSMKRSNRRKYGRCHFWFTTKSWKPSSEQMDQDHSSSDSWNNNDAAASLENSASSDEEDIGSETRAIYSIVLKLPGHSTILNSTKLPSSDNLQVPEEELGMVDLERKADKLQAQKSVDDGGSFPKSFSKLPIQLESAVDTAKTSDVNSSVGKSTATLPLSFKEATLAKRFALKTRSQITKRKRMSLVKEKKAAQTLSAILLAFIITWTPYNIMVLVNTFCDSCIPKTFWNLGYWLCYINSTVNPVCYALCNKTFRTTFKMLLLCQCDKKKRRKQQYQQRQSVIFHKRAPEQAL
Note: assay procedure not described here.

Vasopressin V2 receptor, sequence (P30518 whole entry): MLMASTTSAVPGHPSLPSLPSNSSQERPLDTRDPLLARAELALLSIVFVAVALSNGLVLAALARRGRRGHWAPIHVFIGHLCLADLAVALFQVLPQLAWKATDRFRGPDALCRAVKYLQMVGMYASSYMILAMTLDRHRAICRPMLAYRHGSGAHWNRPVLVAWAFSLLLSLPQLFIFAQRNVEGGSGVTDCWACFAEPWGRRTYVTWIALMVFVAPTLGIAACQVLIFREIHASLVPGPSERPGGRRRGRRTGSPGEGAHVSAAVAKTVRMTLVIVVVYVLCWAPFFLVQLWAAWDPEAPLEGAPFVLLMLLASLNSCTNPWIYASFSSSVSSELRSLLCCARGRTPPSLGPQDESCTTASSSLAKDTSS

For the compound `C[N+]1(C)CCC(OC(=O)C(O)(c2ccccc2)C2CCCC2)C1` (stereo unspecified) [GLYCOPYRRONIUM BROMIDE], the AC50 on Vasopressin V2 receptor is more than 30 µM; on Melanocortin receptor 4 it was more than 30 µM; at Progesterone receptor it was more than 10 µM; on Thromboxane A2 receptor, more than 30 µM.

Consider `CN(C)CCC(c1ccc(Cl)cc1)c1ccccn1` (stereo unspecified) [CHLORPHENIRAMINE], for which the AC50 was more than 30 µM on Vasopressin V2 receptor; more than 10 µM in experiment [1]; more than 10 µM at Histamine H2 receptor; more than 30 µM at Melanocortin receptor 4; more than 10 µM on Mu-type opioid receptor [2]; more than 30 µM in [3].

Consider `CCOC(=O)[C@H](CCc1ccccc1)N[C@@H](C)C(=O)N1[C@H](C(=O)O)C[C@@H]2CCC[C@@H]21`, for which the concentration at half-maximal activity (AC50) on Vasopressin V2 receptor was more than 30 µM; in experiment [1] it was more than 10 µM; at Histamine H2 receptor, more than 10 µM; on Melanocortin receptor 4 it was more than 30 µM; at Mu-type opioid receptor [2], more than 30 µM; in experiment [3], more than 30 µM.

Take `CCCN1C[C@H](CSC)C[C@@H]2c3cccc4[nH]cc(c34)C[C@H]21` [PERGOLIDE]: the AC50 on Vasopressin V2 receptor is more than 30 µM; in experiment [1], more than 10 µM; at Histamine H2 receptor, 0.95 µM; on Melanocortin receptor 4, more than 30 µM; at Progesterone receptor, more than 30 µM; at Mu-type opioid receptor [2] it was more than 30 µM.

For `Cc1ccc(-c2cc(C(F)(F)F)nn2-c2ccc(S(N)(=O)=O)cc2)cc1` [CELECOXIB], the AC50 on Vasopressin V2 receptor is more than 30 µM; in [1], more than 10 µM; at Histamine H2 receptor it was more than 10 µM; on Melanocortin receptor 4, more than 10 µM; on Mu-type opioid receptor [2], more than 30 µM.

On to `O=P1(NCCCl)OCCCN1CCCl` (stereo unspecified) [IFOSFAMIDE], for which the half-maximal activity concentration (AC50) (at Vasopressin V2 receptor; in [1]; on Histamine H2 receptor; at Melanocortin receptor 4; at Progesterone receptor) was more than 30 µM each time.

With `CCCSc1ccc2nc(NC(=O)OC)[nH]c2c1` [ALBENDAZOLE], the AC50 on Vasopressin V2 receptor is more than 10 µM; in experiment [1] it was more than 10 µM; on Histamine H2 receptor it was more than 10 µM; on Melanocortin receptor 4 it was more than 10 µM; on Progesterone receptor, more than 10 µM; at Mu-type opioid receptor [2], more than 30 µM.

As for `CCC(C)n1ncn(-c2ccc(N3CCN(c4ccc(OCC5COC(Cn6cncn6)(c6ccc(Cl)cc6Cl)O5)cc4)CC3)cc2)c1=O` (stereo unspecified) [ITRACONAZOLE], the AC50 is more than 30 µM on Vasopressin V2 receptor; more than 30 µM in experiment [1]; more than 10 µM on Histamine H2 receptor; more than 30 µM on Melanocortin receptor 4; more than 30 µM on Progesterone receptor; more than 10 µM at Mu-type opioid receptor [2]. In experiment [3], the concentration at half-maximal activity (AC50) was more than 30 µM.

In the case of `CC(C)C[C@H]1C(=O)N2CCC[C@H]2[C@]2(O)O[C@](NC(=O)[C@@H]3C=C4c5cccc6[nH]c(Br)c(c56)C[C@H]4N(C)C3)(C(C)C)C(=O)N12` [BROMOCRIPTINE], the concentration at half-maximal activity (AC50) in [4] is 1.07 µM; at Vasopressin V2 receptor it was more than 30 µM; in experiment [1], more than 10 µM; at Histamine H2 receptor, 2.13 µM; on Melanocortin receptor 4, more than 30 µM; at Mu-type opioid receptor [5], 3.45 µM. The values for the concentration at half-maximal activity (AC50) on Progesterone receptor, on Thromboxane A2 receptor and at Mu-type opioid receptor [2] were more than 30 µM, 18.8 µM and 14 µM, respectively.

In the case of `C[C@]12CCC(=O)C=C1CC[C@@H]1[C@@H]2[C@@H](O)C[C@@]2(C)[C@H]1CC[C@]2(O)C(=O)CO` [HYDROCORTISONE], the AC50 at Vasopressin V2 receptor is more than 30 µM; in [1] it was more than 10 µM; at Histamine H2 receptor, more than 10 µM; at Melanocortin receptor 4 it was more than 30 µM; at Mu-type opioid receptor [2], more than 30 µM; in experiment [3], more than 30 µM.

As to `CN(C)/N=N/c1[nH]cnc1C(N)=O` [DACARBAZINE], the half-maximal activity concentration (AC50) was more than 10 µM at Vasopressin V2 receptor; more than 10 µM in experiment [1]; more than 10 µM at Histamine H2 receptor; more than 10 µM on Melanocortin receptor 4; more than 10 µM at Progesterone receptor; more than 30 µM at Mu-type opioid receptor [2].

As for `Cc1c(C(=O)NN2CCCCC2)nn(-c2ccc(Cl)cc2Cl)c1-c1ccc(Cl)cc1` [RIMONABANT], the AC50 in [6] is 23 µM; on Vasopressin V2 receptor, more than 30 µM; in experiment [7], more than 30 µM; in experiment [1], more than 10 µM; on Histamine H2 receptor, more than 10 µM; on Melanocortin receptor 4 it was 28.2 µM. Besides, the AC50 at Progesterone receptor is more than 30 µM; in [3], 11 µM.

With `CC1=C(C(=O)O)N2C(=O)[C@@H](NC(=O)[C@H](N)c3ccccc3)[C@H]2SC1` [CEPHALEXIN ANHYDROUS], the AC50 was more than 30 µM on Vasopressin V2 receptor; more than 10 µM in experiment [1]; more than 30 µM on Histamine H2 receptor; more than 30 µM at Melanocortin receptor 4; more than 30 µM in experiment [3].

As to `Cc1cccc(Nc2ccccc2C(=O)O)c1C` [MEFENAMIC ACID], the AC50 in experiment [4] is more than 30 µM; on Vasopressin V2 receptor it was more than 10 µM; in experiment [1] it was more than 10 µM; at Histamine H2 receptor, more than 10 µM; at Melanocortin receptor 4, more than 10 µM; on Mu-type opioid receptor [5], more than 30 µM. The concentration at half-maximal activity (AC50) at Progesterone receptor was more than 10 µM; on Thromboxane A2 receptor, more than 30 µM; on Mu-type opioid receptor [2], more than 30 µM.

`O=C(O[C@H]1C[C@H]2CC[C@@H](C1)[N+]21CCCC1)C(O)(c1ccccc1)c1ccccc1` [TROSPIUM]: the concentration at half-maximal activity (AC50) in experiment [6] was more than 30 µM; on Vasopressin V2 receptor, more than 30 µM; in [7] it was 0.0089 µM; in experiment [1], more than 30 µM; at Histamine H2 receptor, more than 30 µM; at Melanocortin receptor 4 it was more than 30 µM. Further, the concentration at half-maximal activity (AC50) (on Progesterone receptor; in experiment [3]) was more than 30 µM throughout.

Take `Clc1ccc(C(c2ccccc2Cl)C(Cl)Cl)cc1` (stereo unspecified) [MITOTANE]: the AC50 is more than 10 µM at Vasopressin V2 receptor; more than 10 µM in experiment [1]; more than 10 µM on Histamine H2 receptor; more than 10 µM on Melanocortin receptor 4; more than 30 µM on Mu-type opioid receptor [2].

Consider `CC1(C)NC(=O)N(c2ccc([N+](=O)[O-])c(C(F)(F)F)c2)C1=O` [NILUTAMIDE], for which the AC50 (in [4]; in [6]; at Vasopressin V2 receptor; in experiment [7]; in [1]; at Histamine H2 receptor) was more than 30 µM each time. In addition, the half-maximal activity concentration (AC50) on Melanocortin receptor 4, on Mu-type opioid receptor [5], on Progesterone receptor and at Thromboxane A2 receptor was more than 30 µM in each case.
